# Laboratory results reported in patent US9867805B2, “Gelatinase inhibitors and prodrugs” (priority 2010, dated 2018).
# Structures can show the parent of a compound that is named as a salt. Where two headings read alike, the source gives them in different places.
# Experiments:
# [1] = Half-life in human liver microsomes
# [2] = Half-life in mouse liver microsomes
# [3] = Half-life in rat liver microsomes
# human MMP-2 [4] = molecular target: T1, human MMP-2 (Homo sapiens, UniProt P08253); conditions: read-out: Ki, MMP-2
# T1 sequence (P08253 110-660): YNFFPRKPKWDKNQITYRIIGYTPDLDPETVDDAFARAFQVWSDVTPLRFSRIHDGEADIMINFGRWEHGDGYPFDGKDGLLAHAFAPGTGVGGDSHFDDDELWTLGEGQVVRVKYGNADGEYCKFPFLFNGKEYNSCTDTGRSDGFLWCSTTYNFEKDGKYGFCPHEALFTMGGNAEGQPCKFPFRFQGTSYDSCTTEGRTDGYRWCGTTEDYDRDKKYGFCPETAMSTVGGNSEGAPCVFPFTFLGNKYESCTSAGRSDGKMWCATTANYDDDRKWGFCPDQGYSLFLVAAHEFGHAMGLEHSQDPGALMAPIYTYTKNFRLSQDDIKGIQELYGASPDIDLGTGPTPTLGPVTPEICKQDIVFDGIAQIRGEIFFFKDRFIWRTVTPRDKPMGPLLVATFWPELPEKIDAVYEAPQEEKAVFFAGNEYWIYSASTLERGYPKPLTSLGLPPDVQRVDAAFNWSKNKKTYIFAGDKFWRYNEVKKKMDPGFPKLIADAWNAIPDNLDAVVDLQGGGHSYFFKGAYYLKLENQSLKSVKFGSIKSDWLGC
# human MMP-9 [5] = molecular target: T2, human MMP-9 (Homo sapiens, UniProt P14780); assay: biochemical; conditions: for koff: read-out: koff, MMP-9; for kon: read-out: kon, MMP-9
# T2 sequence (P14780 107-707 limits assumed): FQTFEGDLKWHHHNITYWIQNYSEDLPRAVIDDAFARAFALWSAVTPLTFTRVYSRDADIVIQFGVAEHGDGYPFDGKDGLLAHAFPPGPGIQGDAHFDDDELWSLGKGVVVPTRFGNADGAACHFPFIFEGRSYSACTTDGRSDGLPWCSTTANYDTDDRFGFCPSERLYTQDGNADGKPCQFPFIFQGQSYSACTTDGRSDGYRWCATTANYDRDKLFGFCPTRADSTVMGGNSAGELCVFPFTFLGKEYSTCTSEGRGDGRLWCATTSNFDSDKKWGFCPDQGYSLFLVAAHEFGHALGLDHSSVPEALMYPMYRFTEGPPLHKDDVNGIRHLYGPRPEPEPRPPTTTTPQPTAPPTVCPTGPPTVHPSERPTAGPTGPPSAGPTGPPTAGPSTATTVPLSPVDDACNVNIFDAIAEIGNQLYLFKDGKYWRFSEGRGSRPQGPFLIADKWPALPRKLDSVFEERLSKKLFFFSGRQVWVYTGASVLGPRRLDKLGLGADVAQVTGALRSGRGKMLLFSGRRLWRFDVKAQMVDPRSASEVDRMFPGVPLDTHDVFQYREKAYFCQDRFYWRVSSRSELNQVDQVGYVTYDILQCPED
# [6] = Half-life in human blood at 37° C.; conditions: for half-life: human, blood
# human MMP-9 [7] = molecular target: T2, human MMP-9; conditions: read-out: Ki, MMP-9
# [8] = Half-life in human plasma at 37° C.; conditions: for half-life: human, plasma
# human MMP-2 [9] = molecular target: T1, human MMP-2; assay: biochemical; conditions: for koff: read-out: koff, MMP-2; for kon: read-out: kon, MMP-2
# [10] = test system: Ames II mixed strains and strain TA98; assay: Ames mutagenicity assay (reverse mutations); conditions: with and without rat liver S9 metabolic activation; six concentrations up to 1 mg/mL
# MMP-3 = MMP-3 (Homo sapiens, UniProt P08254); assay: biochemical; conditions: read-out: inhibition of MMP-3
# Chain of MMP-3 (P08254 100-477): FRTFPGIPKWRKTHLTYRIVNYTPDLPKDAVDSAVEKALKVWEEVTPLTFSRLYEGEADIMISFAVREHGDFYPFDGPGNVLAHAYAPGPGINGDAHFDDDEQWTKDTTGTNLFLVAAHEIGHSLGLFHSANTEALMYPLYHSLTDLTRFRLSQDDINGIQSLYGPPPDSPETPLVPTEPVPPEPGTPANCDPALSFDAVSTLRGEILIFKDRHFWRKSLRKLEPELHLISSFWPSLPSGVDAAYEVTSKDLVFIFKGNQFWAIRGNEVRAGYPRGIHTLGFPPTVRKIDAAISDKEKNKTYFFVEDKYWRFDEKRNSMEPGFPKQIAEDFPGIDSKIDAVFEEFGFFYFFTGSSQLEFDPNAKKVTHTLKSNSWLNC
# MMP-7 = molecular target: T3, MMP-7 (Homo sapiens, UniProt P09237); conditions: read-out: Ki, MMP-7
# T3 sequence (P09237 95-267): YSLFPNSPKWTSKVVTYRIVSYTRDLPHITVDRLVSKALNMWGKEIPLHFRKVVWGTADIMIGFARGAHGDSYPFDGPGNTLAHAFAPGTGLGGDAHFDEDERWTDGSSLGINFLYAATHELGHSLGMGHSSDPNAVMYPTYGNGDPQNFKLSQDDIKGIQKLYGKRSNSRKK
# MMP-14 [11] = molecular target: T4, MMP-14 (Homo sapiens, UniProt P50281); conditions: read-out: Ki, MMP-14
# MMP-14 [12] = molecular target: T4, MMP-14; assay: biochemical
# MMP-1 = molecular target: T5, MMP-1 (Homo sapiens, UniProt P03956); assay: biochemical; conditions: read-out: inhibition of MMP-1
# T5 sequence (P03956 100-469): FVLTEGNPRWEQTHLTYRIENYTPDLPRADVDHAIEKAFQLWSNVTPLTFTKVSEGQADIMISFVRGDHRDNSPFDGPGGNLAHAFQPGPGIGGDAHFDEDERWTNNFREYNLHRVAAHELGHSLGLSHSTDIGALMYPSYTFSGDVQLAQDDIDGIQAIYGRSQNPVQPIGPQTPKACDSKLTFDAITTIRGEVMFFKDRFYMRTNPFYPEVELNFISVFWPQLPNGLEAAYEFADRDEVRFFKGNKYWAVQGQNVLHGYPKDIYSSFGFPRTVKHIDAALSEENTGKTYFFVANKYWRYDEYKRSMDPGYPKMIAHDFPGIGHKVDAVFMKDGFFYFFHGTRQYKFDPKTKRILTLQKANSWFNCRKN
# other MMPs = conditions: background, earlier reports; cited from earlier work
# [13] = rat; cited from earlier work
# [14] = mice; cited from earlier work
# [15] = cited from earlier work
# human MMP-2 [16] = molecular target: T1, human MMP-2; conditions: read-out: Ki for human MMP-2; background, earlier reports; cited from earlier work
# human MMP-9 [17] = molecular target: T2, human MMP-9; conditions: read-out: Ki for human MMP-9; background, earlier reports; cited from earlier work
compound,measurement,setting,value
"Nc1ccc(Oc2ccc(S(=O)(=O)CC3CS3)cc2)cc1 (stereo not shown) [Compound 6, 4-[4-((Thiiran-2-yl)methylsulfonyl)phenoxy]benzamine.HCl salt]","Half-life in liver microsomes, Human",[1],>60 min
same,"Half-life in liver microsomes, Mouse",[2],27.3 ± 2.1 min
same,"Half-life in liver microsomes, Rat",[3],23.4 ± 0.7 min
NCC(=O)Nc1ccc(Oc2ccc(S(=O)(=O)CC3CS3)cc2)cc1 (stereo not shown) [Compound 11a],Ki,human MMP-2 [4],440 ± 50 nM
same,koff,human MMP-9 [5],0.00065 ± 6e-05 s⁻¹
same,kon,human MMP-9 [5],210 ± 40 M⁻¹ s⁻¹
same,Half-life in human blood at 37° C.,"[6]; human blood, 37° C.",27.1 ± 2.5 min
same,Ki,human MMP-9 [7],3100 ± 300 nM
same,Half-life in human plasma at 37° C.,"[8]; human plasma, 37° C.",32.4 ± 2.7 min
same,koff,human MMP-2 [9],0.00082 ± 9e-05 s⁻¹
same,kon,human MMP-2 [9],1900 ± 600 M⁻¹ s⁻¹
NCCCCC(N)C(=O)Nc1ccc(Oc2ccc(S(=O)(=O)CC3CS3)cc2)cc1 (stereo not shown) [Compound 11b],koff,human MMP-9 [5],0.00042 ± 7e-05 s⁻¹
same,kon,human MMP-9 [5],270 ± 40 M⁻¹ s⁻¹
same,half-life,[6],15.3 ± 1.9 min
same,solubility,"Water solubility; water, Water Solubility",> 10000 µg/mL
same,half-life,[8],25.1 ± 5.2 min
same,koff,human MMP-2 [9],0.00021 ± 9e-05 s⁻¹
same,kon,human MMP-2 [9],3400 ± 100 M⁻¹ s⁻¹
NC(CCC(=O)O)C(=O)Nc1ccc(Oc2ccc(S(=O)(=O)CC3CS3)cc2)cc1 (stereo not shown) [Compound 11c],Ki,human MMP-9 [5],5400 ± 300 nM
same,koff,human MMP-9 [5],0.0012 ± 7e-05 s⁻¹
same,kon,human MMP-9 [5],2300 ± 100 M⁻¹ s⁻¹
same,half-life,[6],27.9 ± 3.8 min
same,solubility,"Water solubility; water, Water Solubility",> 10000 µg/mL
same,half-life,[8],32.8 ± 3.6 min
same,koff,human MMP-2 [9],0.00018 ± 0.00016 s⁻¹
same,kon,human MMP-2 [9],2500 ± 100 M⁻¹ s⁻¹
N=C(N)NCCCC(N)C(=O)Nc1ccc(Oc2ccc(S(=O)(=O)CC3CS3)cc2)cc1 (stereo not shown) [Compound 11d],half-life,[1],> 60 min
same,half-life,[2],> 60 min
same,half-life,[6],25.4 ± 0.1 min
same,solubility,"Water solubility; water, Water Solubility",> 10000 µg/mL
same,half-life,[8],29.5 ± 0.7 min
same,half-life,[3],59.3 ± 4.5 min
same,mutagenic potential (Ames mutagenicity assay),[10],negative
N=C(N)NCCCC(N)C(=O)NC(CCCNC(=N)N)C(=O)Nc1ccc(Oc2ccc(S(=O)(=O)CC3CS3)cc2)cc1 (stereo not shown) [Compound 11e],half-life,[6],5.9 ± 0.6 min
same,solubility,"Water solubility; water, Water Solubility",> 10000 µg/mL
same,half-life,[8],11.8 ± 0.5 min
Cc1oc(=O)oc1COC(=O)Nc1ccc(Oc2ccc(S(=O)(=O)CC3CS3)cc2)cc1 (stereo not shown) [Compound 14],inhibition at 80 µM,human MMP-9 [5]; read-out: inhibition of MMP-9,37%
same,solubility,"Water solubility; Water Solubility, in 100% water, solubility calculated using ε of MIK-G6 (p-N-acetyl SB-3CT)",1.01 µg/mL
same,half-life,[8],1.6 ± 0.4 min
same,Ki,human MMP-2 [9],2400 ± 600 nM
"Nc1ccc(Oc2ccc(S(=O)(=O)CC3CS3)cc2)cc1O (stereo not shown) [Compound 22, 2-Amino-5-(4-((thiiran-2-ylmethyl)sulfonyl)phenoxy)phenol]",Ki,human MMP-2 [4],78 ± 43 nM
same,inhibition at 300 µM,MMP-3,54%
same,koff,human MMP-9 [5],0.00053 ± 0.0001 s⁻¹
same,kon,human MMP-9 [5],1070 ± 120 M⁻¹ s⁻¹
same,Ki,MMP-7,116000 ± 13000 nM
same,Ki,human MMP-9 [7],490 ± 110 nM
same,Ki,MMP-14 [11],260 ± 70 nM
same,koff,human MMP-2 [9],0.00014 ± 7e-05 s⁻¹
same,kon,human MMP-2 [9],1700 ± 100 M⁻¹ s⁻¹
same,koff,"MMP-14 [12]; read-out: koff, MMP-14",0.000702 ± 0.000161 s⁻¹
same,kon,"MMP-14 [12]; read-out: kon, MMP-14",2690 ± 270 M⁻¹ s⁻¹
same,inhibition at 300 µM,MMP-1,11%
O=S(=O)(CC1CS1)c1ccc(Oc2ccccc2)cc1 (stereo not shown) [SB-3CT],Ki values for other MMPs,other MMPs,in the μM range at best
same,solubility,"Water solubility; water, aqueous solubility",~2.45 µg/mL
same,treatment in model of subarachnoid hemorrhage,[13],effective
same,treatment of viral-induced vascular leakage,[14],effective
same,histological damage,[15]; administration at 6 hours after ischemia,potently blocked
same,infarct volume,[15]; mouse transient ischemia,30 % of control
same,neurobehavioral scores,[15]; mouse transient ischemia,significantly improved
O=S(=O)(CC1CS1)c1ccc(Oc2ccc(O)cc2)cc1 (stereo not shown) [p-hydroxylated metabolite],Ki,human MMP-2 [16],6 ± 3 nM
same,Ki,human MMP-9 [17],160 ± 80 nM
